In the experiment the target is T1, SIRT1 (Homo sapiens, UniProt Q96EB6).
T1 sequence (Q96EB6 1-747): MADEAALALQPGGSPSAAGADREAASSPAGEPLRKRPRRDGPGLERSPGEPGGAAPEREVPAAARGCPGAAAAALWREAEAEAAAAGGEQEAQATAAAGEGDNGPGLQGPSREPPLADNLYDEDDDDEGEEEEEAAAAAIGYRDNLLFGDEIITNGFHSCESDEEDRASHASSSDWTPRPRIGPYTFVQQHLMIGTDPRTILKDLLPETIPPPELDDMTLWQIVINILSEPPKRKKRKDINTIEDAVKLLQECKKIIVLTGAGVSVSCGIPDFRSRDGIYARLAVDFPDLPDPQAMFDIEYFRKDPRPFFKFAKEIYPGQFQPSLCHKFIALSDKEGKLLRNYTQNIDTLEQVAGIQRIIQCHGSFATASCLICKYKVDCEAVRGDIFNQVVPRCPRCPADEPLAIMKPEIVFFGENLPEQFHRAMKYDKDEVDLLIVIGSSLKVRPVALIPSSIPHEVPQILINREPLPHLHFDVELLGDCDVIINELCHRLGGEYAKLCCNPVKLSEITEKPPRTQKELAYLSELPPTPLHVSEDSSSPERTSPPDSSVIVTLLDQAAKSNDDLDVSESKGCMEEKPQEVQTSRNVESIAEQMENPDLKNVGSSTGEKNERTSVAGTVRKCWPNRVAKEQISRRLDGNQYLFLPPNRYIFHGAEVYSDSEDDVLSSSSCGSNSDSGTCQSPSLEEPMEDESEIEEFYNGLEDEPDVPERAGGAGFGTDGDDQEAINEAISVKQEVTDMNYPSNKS
Put plainly: Trp mass spectrometry assay of SIRT1 activation (deacetylation of Ac-R-H-K-K(Ac)-W-NH2 peptide, OAADPR formation). It is filed as biochemical. Conditions: Trp peptide 0.5 μM, 120 μM βNAD+, 10 nM SIRT1, 25 min, 25° C.; for Emax: 25 min, read-out: TRP MAX RESP (percent maximum fold activation relative to control = 100%). The text has this:
Mass spectrometry based assays were used to identify modulators of SIRT1 activity. The TAMRA based assay utilized a peptide having 20 amino acid residues as follows: Ac-EE-K(biotin)-[…](Ac)NleSTEG-K(5TMR)-EE-NH2 (SEQ ID NO: 1), wherein K(Ac) is an acetylated lysine residue and Nle is a norleucine. The peptide was labeled with the fluorophore 5TMR (excitation 540 nm/emission 580 nm) at the C-terminus. The sequence of the peptide substrate was based on p53 with several modifications. In addition, the methionine residue naturally present in the sequence was replaced with the norleucine because the methionine may be susceptible to oxidation during synthesis and purification. The Trp based assay utilized a peptide having an amino acid residues as follows: Ac-R-H-K-K(Ac)-W-NH2 (SEQ ID NO: 2).
The Trp mass spectrometry assay was conducted as follows. 0.5 μM peptide substrate and 120 μM βNAD^+ were incubated with 10 nM SIRT1 for 25 minutes at 25° C. in a reaction buffer (50 mM HEPES pH 7.5, […], 1 mM DTT, 0.05% BSA). The SIRT1 protein was obtained by cloning the SirT1 gene into a T7-promoter containing vector, which was then expressed in BL21(DE3) bacterial cells and purified as described in further detail below. Test compound was added at varying concentrations to this reaction mixture and the resulting reactions were monitored. After the 25 minute incubation with SIRT1, 10 μL of 10% formic acid was added to stop the reaction. The resulting reactions were sealed and frozen for later mass spec analysis. The relative SIRT1 activity was then determined by measuring the amount of O-acetyl-ADP-ribose (OAADPR) formed (or, alternatively, the amount of deacetylated Trp peptide generated) by the NAD-dependent sirtuin deacetylation reaction in the presence of varying concentrations of the test compound versus control reactions lacking the test compound. The degree to which the test agent activated deacetylation by SIRT1 was expressed as EC1.5 (i.e., the concentration of compound required to increase SIRT1 activity by 50% over the control lacking test compound), and Percent Maximum Activation (i.e., the maximum activity relative to control (100%) obtained for the test compound).
A control for inhibition of sirtuin activity was conducted by adding 1 μL of 500 mM nicotinamide as a negative control at the start of the reaction (e.g., permits determination of maximum sirtuin inhibition). A control for activation of sirtuin activity was conducted using 10 nM of sirtuin protein, with 1 μL of DMSO in place of compound, to determine the amount of deacetylation of the substrate at a given time point within the linear range of the assay. This time point was the same as that used for test compounds and, within the linear range, the endpoint represents a change in velocity.
For the above assay, SIRT1 protein was expressed and purified as follows. The SirT1 gene was cloned into a T7-promoter containing vector and transformed into BL21(DE3). The protein was expressed by induction with 1 mM IPTG as an N-terminal His-tag fusion protein at 18° C. overnight and harvested at 30,000×g. Cells were lysed with lysozyme in lysis buffer (50 mM Tris-HCl, 2 mM Tris[2-carboxyethyl] phosphine (TCEP), 10 μM ZnCl2, 200 mM NaCl) and further treated with sonication for 10 min for complete lysis. The protein was purified over a Ni-NTA column (Amersham) and fractions containing pure protein were pooled, concentrated and run over a sizing column (Sephadex S200 26/60 global). The peak containing soluble protein was collected and run on an Ion-exchange column (MonoQ). Gradient elution (200 mM-500 mM NaCl) yielded pure protein. This protein was concentrated and dialyzed against dialysis buffer (20 mM Tris-HCl, 2 mM TCEP) overnight. The protein was aliquoted and frozen at −80° C. until further use.
Sirtuin-modulating compounds of Formula (I) that activated SIRT1 were identified using the assay described above and are shown below in Table 1. […]

Turning to `O=C(Nc1cccc(OC[C@H](O)CO)n1)N1c2nc(-c3cccc(C(F)(F)F)c3)c(Cl)cc2N2CCC[C@H]1C2` [Example 65, (9S)-3-chloro-N-(6-((R)-2,3-dihydroxypropoxy)pyridin-2-yl)-2-(3-(trifluoromethyl)phenyl)-8,9-dihydro-6H-5,9-methanopyrido[2,3-b][1,4]diazocine-10(7H)-carboxamide], the Emax is at least 150% and the “TRP Activity (EC1.5, concentration of compound required to increase SIRT1 activity by 50% over control)” value is reported as “A (EC1.5<1 μM)”.

Consider `O=C(Nc1cc(OC[C@H](O)CO)ccn1)N1c2nc(-c3cccc(C(F)(F)F)c3)c(Cl)cc2N2CCC[C@H]1C2` [Example 82, (9S)-3-chloro-N-(4-((R)-2,3-dihydroxypropoxy)pyridin-2-yl)-2-(3-(trifluoromethyl)phenyl)-8,9-dihydro-6H-5,9-methanopyrido[2,3-b][1,4]diazocine-10(7H)-carboxamide], for which the Emax is at least 150% and the “TRP Activity (EC1.5, concentration of compound required to increase SIRT1 activity by 50% over control)” value was “A (EC1.5<1 μM)”.

For `Cc1cc(-c2ccc3c(n2)N(C(=O)Nc2cncc(F)c2)[C@H]2CCCN3C2)ccn1` [Example 5, (9S)-N-(5-fluoropyridin-3-yl)-2-(2-methylpyridin-4-yl)-8,9-dihydro-6H-5,9-methanopyrido[2,3-b][1,4]diazocine-10(7H)-carboxamide], the Emax is at least 150% and the “TRP Activity (EC1.5, concentration of compound required to increase SIRT1 activity by 50% over control)” value is “A (EC1.5<1 μM)”.

As to `Cc1cc(-c2nc3c(cc2C)N2CCC[C@@H](C2)N3C(=O)Nc2cccnc2)ccn1` [Example 68, (9S)-3-methyl-2-(2-methylpyridin-4-yl)-N-(pyridin-3-yl)-8,9-dihydro-6H-5,9-methanopyrido[2,3-b][1,4]diazocine-10(7H)-carboxamide], the Emax was at least 150% and the “TRP Activity (EC1.5, concentration of compound required to increase SIRT1 activity by 50% over control)” value is “A (EC1.5<1 μM)”.

In the case of `O=C(Nc1cnccn1)N1c2nc(N3CCC[C@H](C(F)(F)F)C3)ccc2N2CCC[C@H]1C2` (single isomer, unassigned) [Example 27], the Emax is at least 150% and the “TRP Activity (EC1.5, concentration of compound required to increase SIRT1 activity by 50% over control)” value is given as “A (EC1.5<1 μM)”.

Turning to `O=C(NC1CC1)c1ccc2c(n1)N(C(=O)Nc1ccccn1)[C@H]1CCCN2C1` [Example 36, (9S)-N2-cyclopropyl-N10-(pyridin-2-yl)-8,9-dihydro-6H-5,9-methanopyrido[2,3-b][1,4]diazocine-2,10(7H)-dicarboxamide], the Emax was at least 150% and the “TRP Activity (EC1.5, concentration of compound required to increase SIRT1 activity by 50% over control)” value is recorded as “A (EC1.5<1 μM)”.

`O=C(Nc1cnc(OC[C@@H](O)CO)nc1)N1c2nc(-c3cccc(C(F)(F)F)c3)c(Cl)cc2N2CCC[C@H]1C2` [Example 72, (9S)-3-chloro-N-(2-((S)-2,3-dihydroxypropoxy)pyrimidin-5-yl)-2-(3-(trifluoromethyl)phenyl)-8,9-dihydro-6H-5,9-methanopyrido[2,3-b][1,4]diazocine-10(7H)-carboxamide]: the Emax is at least 150% and the “TRP Activity (EC1.5, concentration of compound required to increase SIRT1 activity by 50% over control)” value is on record as “A (EC1.5<1 μM)”.

`O=C(Nc1nccc(OC[C@@H](O)CO)n1)N1c2nc(-c3cccc(C(F)(F)F)c3)c(Cl)cc2N2CCC[C@H]1C2` [Example 75]: the Emax was at least 150% and the “TRP Activity (EC1.5, concentration of compound required to increase SIRT1 activity by 50% over control)” value is recorded as “A (EC1.5<1 μM)”.

With `O=C(Nc1cncc(F)c1)N1c2nc(-c3ccnc(C(F)(F)F)c3)ccc2N2CCC[C@H]1C2` [Example 2, (9S)-N-(5-fluoropyridin-3-yl)-2-(2-(trifluoromethyl)pyridin-4-yl)-8,9-dihydro-6H-5,9-methanopyrido[2,3-b][1,4]diazocine-10(7H)-carboxamide], the Emax is at least 150% and the “TRP Activity (EC1.5, concentration of compound required to increase SIRT1 activity by 50% over control)” value was “A (EC1.5<1 μM)”.

As for `O=C(NC1CC1(F)F)c1ccc2c(n1)N(C(=O)Nc1cc(OC[C@H](O)CO)ccn1)[C@H]1CCCN2C1` (single isomer, unassigned) [Example 52], the “TRP Activity (EC1.5, concentration of compound required to increase SIRT1 activity by 50% over control)” value was “A (EC1.5<1 μM)”.

In the case of `O=C(NCC(F)(F)F)c1nc2c(cc1Cl)N1CCC[C@@H](C1)N2C(=O)Nc1ccccn1` [Example 38, (9S)-3-chloro-N10-(pyridin-2-yl)-N2-(2,2,2-trifluoroethyl)-8,9-dihydro-6H-5,9-methanopyrido[2,3-b][1,4]diazocine-2,10(7H)-dicarboxamide], the Emax was at least 150% and the “TRP Activity (EC1.5, concentration of compound required to increase SIRT1 activity by 50% over control)” value is listed as “A (EC1.5<1 μM)”.

In the case of `Cc1cc(-c2nc3c(cc2Cl)N2CCC[C@@H](C2)N3C(=O)Nc2cccnc2)ccn1` [Example 66, (9S)-3-chloro-2-(2-methylpyridin-4-yl)-N-(pyridin-3-yl)-8,9-dihydro-6H-5,9-methanopyrido[2,3-b][1,4]diazocine-10(7H)-carboxamide], the Emax was at least 150%.

`Cc1cc(C(=O)N[C@H](C)C(F)(F)F)nc2c1N1CCC[C@@H](C1)N2C(=O)Nc1ccc(OC[C@@H](O)CO)cn1` [Example 56, (9S)-N10-(5-((S)-2,3-dihydroxypropoxy)pyridin-2-yl)-4-methyl-N2-((R)-1,1,1-trifluoropropan-2-yl)-8,9-dihydro-6H-5,9-methanopyrido[2,3-b][1,4]diazocine-2,10(7H)-dicarboxamide]: the Emax was at least 150% and the “TRP Activity (EC1.5, concentration of compound required to increase SIRT1 activity by 50% over control)” value is given as “A (EC1.5<1 μM)”.

Turning to `Cc1cc(-c2ccc3c(n2)N(C(=O)Nc2cccnc2)[C@H]2CCCN3C2)ccn1` [Example 32, (9S)-2-(2-methylpyridin-4-yl)-N-(pyridin-3-yl)-8,9-dihydro-6H-5,9-methanopyrido[2,3-b][1,4]diazocine-10(7H)-carboxamide], the Emax is at least 150% and the “TRP Activity (EC1.5, concentration of compound required to increase SIRT1 activity by 50% over control)” value was “A (EC1.5<1 μM)”.

Consider `O=C(Nc1ncc(OC[C@H](O)CO)cn1)N1c2nc(-c3cccc(C(F)(F)F)c3)c(Cl)cc2N2CCC[C@H]1C2` [Example 89, (9S)-3-chloro-N-(5-((R)-2,3-dihydroxypropoxy)pyrimidin-2-yl)-2-(3-(trifluoromethyl)phenyl)-8,9-dihydro-6H-5,9-methanopyrido[2,3-b][1,4]diazocine-10(7H)-carboxamide], for which the Emax was at least 150% and the “TRP Activity (EC1.5, concentration of compound required to increase SIRT1 activity by 50% over control)” value was “A (EC1.5<1 μM)”.

The values above are taken from US20190048016A1, “SUBSTITUTED BRIDGED UREA ANALOGS AS SIRTUIN MODULATORS” (GlaxoSmithKline Intellectual Property(No.2)Limited, priority 2014, published 2019).
